Data taken from the CATMoS acute toxicity set (Mansouri et al. 2021).
Values joined by “and” are separate entries in the source; they are usually repeats but may differ in a detail not shown here. Identical values can stand only once.

Test: rat acute oral toxicity
Details: in vivo

Structure (SMILES)	LD50
COP(=O)(OC)O/C(=C\Cl)c1cc(Cl)c(Cl)cc1Cl	480 mg/kg
COc1ccc(Cc2nccc3cc(OC)c(OC)cc23)cc1OC	325 mg/kg
NC(=O)c1ccccc1Cl	1250 mg/kg
Nc1ccccc1N	510 mg/kg
CCCCC(CC)COC(=O)CC(C(=O)OCC(CC)CCCC)S(=O)(=O)O (stereo not given)	1900 mg/kg
CCNCC	540 mg/kg
OCc1ccco1	177 mg/kg
CC=O	661 mg/kg
CCCCOP(=O)(OCCCC)Oc1ccccc1	2140 mg/kg
Cc1ccc(O)c(C)c1	2300 mg/kg
CCOC(=O)CC(SP(=S)(OC)OC)C(=O)OCC (stereo not given)	1190 mg/kg
CCCCCOC(C)=O	6500 mg/kg
NC(=O)c1ccccc1O	980 mg/kg
Nc1ccc(Cl)c(Cl)c1	530 mg/kg
O=C1c2ccccc2C(=O)N1SC(Cl)(Cl)Cl	2640 mg/kg
CC(C)(C)c1ccc(C(O)CCCN2CCC(C(O)(c3ccccc3)c3ccccc3)CC2)cc1 (stereo not given)	438 mg/kg
Cc1ccc2nc(-c3ccc(N)cc3)sc2c1	5650 mg/kg
CNC(=O)ON=C(C)SC	14.7 mg/kg
CC=Cc1ccc2c(c1)OCO2	1300 mg/kg
ClC(Br)Br	370 mg/kg
c1ccc2[nH]c(-c3cscn3)nc2c1	2080 mg/kg
CC(O)C#N (stereo not given)	21 mg/kg
Cc1cc(O)ccc1Cl	1830 mg/kg
C#CCOS(=O)OC1CCCCC1Oc1ccc(C(C)(C)C)cc1 (stereo not given)	2200 mg/kg
NCCNCCN	1080 mg/kg

Structure (SMILES)	LD50
CCCCOCC1CO1 (stereo not given)	1660 mg/kg
CC(=O)CC(C)=O	570 mg/kg
C=COC(C)=O	2900 mg/kg
CS(C)=O	14500 mg/kg
CCCCC(CC)C(=O)O (stereo not given)	2040 mg/kg
CC#N	2490 mg/kg
O=C(O)c1ccc2cc(O)ccc2c1	947 mg/kg
CNC(=O)N(C)c1nnc(C(C)(C)C)s1	640 mg/kg
COCCOC(C)=O	1250 mg/kg
CCCCCCCO	500 mg/kg
CCCCCCCCCCCCOS(=O)(=O)O	977 mg/kg
Oc1ccc(Cl)cc1Cc1cc(Cl)ccc1O	1510 mg/kg
C=C(C)C(=O)OCCCC	16000 mg/kg
CC1(C)OC(c2ccco2)CN1C(=O)C(Cl)Cl (stereo not given)	521 mg/kg
CC(C)CC(C)O (stereo not given)	2590 mg/kg
N#C[N-2]	158 mg/kg
CNC(=S)NN	14 mg/kg
C=CCCl	284 mg/kg
NCCO	1720 mg/kg
C=CC[N+](C)(C)CC=C	2520 mg/kg
O=C(NC(=O)c1c(F)cccc1F)Nc1ccc(Cl)cc1	790 mg/kg
O=C(Cl)CCCCl	1350 mg/kg
NNc1nncc2ccccc12	173 mg/kg
OC[C@@H](O)[C@H](O)[C@@H](O)CO	14100 mg/kg
O=C1C2CC=CCC2C(=O)N1SC(Cl)(Cl)Cl (stereo not given)	9000 mg/kg

Structure (SMILES)	LD50
CCCCOCCOC(=O)COc1ccc(Cl)cc1Cl	831 mg/kg
O=C=NC1CCC(CC2CCC(N=C=O)CC2)CC1 (stereo not given)	1060 mg/kg
C=CC#N	78 mg/kg
CCNc1nc(Cl)nc(NC(C)C)n1	1870 mg/kg
ClC(Cl)(Cl)Cl	2350 mg/kg
c1ccc2ncccc2c1	331 mg/kg
COC(=O)CC(=O)CC(=O)OC	4480 mg/kg
C[C@@H]1Cc2c(Cl)cc(C(=O)N[C@@H](Cc3ccccc3)C(=O)O)c(O)c2C(=O)O1	20 mg/kg
ClC(Cl)Br	916 mg/kg
O=C=Nc1ccc(OC(F)(F)F)cc1	1520 mg/kg
CC1=C(C(=O)Nc2ccccc2)S(=O)(=O)CCO1	1630 mg/kg
CSc1nc(NC(C)C)nc(NC(C)C)n1	1940 mg/kg
CN=C=O	51.5 mg/kg
CC1=NNC(=O)N(/N=C/c2cccnc2)C1	5690 mg/kg
CCOP(=S)(OCC)Oc1ccc(S(C)=O)cc1 (stereo not given)	1.8 mg/kg
O=[N+]([O-])c1cc(Cl)ccc1Cl	1000 mg/kg
CCNc1ccccc1	334 mg/kg
CCCCOC(=O)CO	4240 mg/kg
C1CN(SSN2CCOCC2)CCO1	4300 mg/kg
CC/C(C)=N/O[Si](C)(O/N=C(\C)CC)O/N=C(\C)CC	2450 mg/kg
CCCCCCCCC=CCCCCCCCCN(CCO)CCO	1260 mg/kg
O=CC=O	481 mg/kg
O=C(O)CCS	63 mg/kg
CCCCSP(=O)(SCCCC)SCCCC	150 mg/kg
CCN(CC)CCNC(=O)c1ccc(N)cc1	1510 mg/kg

Structure (SMILES)	LD50
COP(=O)(NC(C)=O)SC (stereo not given)	700 mg/kg
Nc1ncnc2c1ncn2C1CC(O)C(COP(=O)(O)OP(=O)(O)OP(=O)(O)O)O1 (stereo not given)	6770 mg/kg
COC(C)(C)CCCC(C)C/C=C/C(C)=C/C(=O)OC(C)C (stereo not given)	2320 mg/kg
ClC1=C(Cl)C2(Cl)C3C4CC(C5OC45)C3C1(Cl)C2(Cl)Cl (stereo not given)	3 mg/kg
O=C1C2(Cl)C3(Cl)C4(Cl)C(Cl)(Cl)C5(Cl)C3(Cl)C1(Cl)C5(Cl)C24Cl (stereo not given)	91.3 mg/kg
C=CC=O	11.1 mg/kg
CC(C)(C)C(O)C(Oc1ccc(Cl)cc1)n1cncn1 (stereo not given)	689 mg/kg
OCC(F)(F)F	153 mg/kg
CCOP(=S)(OCC)Oc1nc(Cl)c(Cl)cc1Cl	108 mg/kg
COC(=O)OC(=O)OC	260 mg/kg
CCC(CC)CN	310 mg/kg
CC(Cc1ccc(C(C)(C)C)cc1)CN1CCCCC1 (stereo not given)	1450 mg/kg
O=C1C=CC(=O)O1	318 mg/kg
Cc1ncc2n1-c1ccc(Cl)cc1C(c1ccccc1F)=NC2	215 mg/kg
O=c1n(Cl)c(=O)n(Cl)c(=O)n1Cl	406 mg/kg
NC1CCC(CC2CCC(N)CC2)CC1 (stereo not given)	350 mg/kg
O=[N+]([O-])c1cccc(Cl)c1Cl	381 mg/kg
c1ccc(OP(Oc2ccccc2)Oc2ccccc2)cc1	444 mg/kg
CCCCN(CCCC)C(=O)N(CCCC)CCCC	16700 mg/kg
CCC(C)(C)OC	1600 mg/kg
CCOC(=O)C(SP(=S)(OC)OC)c1ccccc1 (stereo not given)	71 mg/kg
CC(C)OC(=O)Nc1ccccc1	1000 mg/kg
C[n+]1ccc(-c2cc[n+](C)cc2)cc1	97.5 mg/kg and 106 mg/kg
CCCC(=O)OC(C(Cl)(Cl)Cl)P(=O)(OC)OC (stereo not given)	760 mg/kg
CCCC(C)(COC(N)=O)COC(N)=O	794 mg/kg

Structure (SMILES)	LD50
CCOP(=S)(OCC)SCSCC	1 mg/kg
C=C(C)[C@@H]1CC=C(C)C(=O)C1	4900 mg/kg
CCCCCCCCCCCCN(C)C	740 mg/kg
CC(C)(C)C(O)(CCc1ccc(Cl)cc1)Cn1cncn1 (stereo not given)	1700 mg/kg
CCCCCc1cc(O)c2c(c1)OC(C)(C)[C@@H]1CCC(C)=C[C@@H]21	666 mg/kg
O=C(O)CBr	50 mg/kg
CCCC(C)c1cccc(OC(=O)NC)c1 (stereo not given)	50 mg/kg
COP(=S)(OC)Oc1cc(Cl)c(Br)cc1Cl	1600 mg/kg
CC(C)=O	5800 mg/kg
CC(=O)CC(c1ccccc1)c1c(O)c2ccccc2oc1=O (stereo not given)	1.6 mg/kg
CN(C)C(C)(C)CO	1660 mg/kg
CC1OC(C)OC(C)OC(C)O1 (stereo not given)	227 mg/kg
C=CCCCC=CCOC	4900 mg/kg
CCCN(CCC)CCC	72.5 mg/kg
CCN(CC)C(=S)SSC(=S)N(CC)CC	500 mg/kg
OC(O)C(Cl)(Cl)Cl	479 mg/kg
Cc1ccc(/N=C/N(C)/C=N/c2ccc(C)cc2C)c(C)c1	400 mg/kg
Cc1cccc([N+](=O)[O-])c1C	2110 mg/kg
C1COCO1	3000 mg/kg
CCSC(=O)N(CC(C)C)CC(C)C	4000 mg/kg
CC(C)C(=O)c1ccccc1	1950 mg/kg
CCc1ccccc1	3500 mg/kg
CCO[Si](CCC#N)(OCC)OCC	5600 mg/kg
CCOc1ccc(CCCCCCC(C)C)cc1	5600 mg/kg
CC(C)Nc1nc(Cl)nc(NC2CC2)n1	516 mg/kg

Structure (SMILES)	LD50
CC(=O)OO	39.9 mg/kg
CCOP(=S)(Oc1ccc([N+](=O)[O-])cc1)c1ccccc1 (stereo not given)	7 mg/kg
C1CC2OC2CC1C1CO1 (stereo not given)	2130 mg/kg
CO[Si](C)(OC)C1CCCCC1	2760 mg/kg
CO[Si](OC)(c1ccccc1)c1ccccc1	2610 mg/kg
N#CO	567 mg/kg and 582 mg/kg
O=C(Cl)c1ccccc1	2460 mg/kg
O=C=Nc1ccc(Cl)c(Cl)c1	91 mg/kg
CCOP(=S)(OCC)Oc1cc(C)nc(C(C)C)n1	92 mg/kg
CNC(=O)ON=CC(C)(C)SC	0.5 mg/kg
CCn1cc(C(=O)O)c(=O)c2ccc(C)nc21	1160 mg/kg
O=[N+]([O-])c1ccc(Cl)cc1O	1000 mg/kg
CCC(C)Nc1c([N+](=O)[O-])cc(C(C)(C)C)cc1[N+](=O)[O-] (stereo not given)	1050 mg/kg
CC(CCl)OC(C)CCl (stereo not given)	240 mg/kg
CCC[N+](CCC)(CCC)CCC	3300 mg/kg
C[Si](C)(Cl)Cl	595 mg/kg
CO[Si](CCCNCCN)(OC)OC	1900 mg/kg
CC1=CC(=O)CC(C)(C)C1	1500 mg/kg
CC(CC=O)CC(C)(C)C (stereo not given)	3240 mg/kg
COc1ccc(C(=O)c2ccccc2)c(O)c1	7400 mg/kg
CC(=O)OC1CC(C)OC(C)O1 (stereo not given)	1930 mg/kg
CCCC(=NOCC)C1=C(O)CC(CC(C)SCC)CC1=O (stereo not given)	2680 mg/kg
O=C(CCl)c1ccccc1	50 mg/kg
O=[N+]([O-])/N=C1\NCCN1Cc1ccc(Cl)nc1	410 mg/kg
CCCCOCCOCCOC(C)=O	6500 mg/kg

Structure (SMILES)	LD50
CCCS	1730 mg/kg
O=C(CS)OC(CO)CO	172 mg/kg
C=CC1CC2C=CC1C2 (stereo not given)	5240 mg/kg
CC(C)OC(=O)Nc1cccc(Cl)c1	1200 mg/kg
O=C1NC(=O)C2C3C(C(O)(c4ccccc4)c4ccccn4)=CC(C3=C(c3ccccc3)c3ccccn3)C12 (stereo not given)	3.8 mg/kg
Clc1ccc(C(Cl)Cl)cc1	1910 mg/kg
CC(O)CCO (stereo not given)	18600 mg/kg
CC1(C)[C@H](/C=C(\Cl)C(F)(F)F)[C@@H]1C(=O)O[C@H](C#N)c1cccc(Oc2ccccc2)c1	114 mg/kg
Clc1cccc(Cl)c1	580 mg/kg
CC(=O)C=C(C)C	300 mg/kg
CC(O)CNCC(C)O (stereo not given)	4760 mg/kg
CCCCN=C=O	360 mg/kg
Cc1cc(C)cc(N)c1	707 mg/kg
C=CC(=O)OCCCC	900 mg/kg
CC(C)(C)OOC1(OOC(C)(C)C)CCCCC1	13300 mg/kg
CCOP(c1ccccc1)c1ccccc1	316 mg/kg
COP(=S)(OC)SCN1C(=O)c2ccccc2C1=O	26 mg/kg
COc1nc(C)nc(NC(=O)NS(=O)(=O)c2ccccc2Cl)n1	5540 mg/kg
Nc1c(Cl)c(Cl)nc(C(=O)O)c1Cl	686 mg/kg
CC(C)N(C(=O)COc1nnc(C(F)(F)F)s1)c1ccc(F)cc1	480 mg/kg
CCOP(=O)(N=C1SCC(C)S1)OCC (stereo not given)	8.9 mg/kg
CCCCC(CC)COC(=O)c1ccccc1 (stereo not given)	2500 mg/kg
C/C(=N\C#N)N(C)Cc1ccc(Cl)nc1	146 mg/kg
CNC(=O)CC#N	387 mg/kg
CN(C)C(CSC(N)=O)CSC(N)=O	340 mg/kg
